# Tests used:
# [1] = Apparent permeability from apical to basolateral side in human Caco2 cells at 10 uM after 1 hr by LC-MS/MS analysis; type: ADME, cell-based; conditions: Caco-2
# [2] = Apparent permeability from basolateral to apical side in human Caco2 cells at 10 uM after 1 hr by LC-MS/MS analysis; type: ADME, cell-based; conditions: Caco-2
# [3] = AUC in C57BL6/J mouse at 20 mg/kg, po by LC-MS/MS analysis; type: ADME, organism-based; conditions: in vivo
# Ileum = test: Drug uptake in C57BL6 mouse ileum at 20 mg/kg, po after 8 hrs by LC-MS/MS; type: ADME, organism-based; conditions: in vivo
# [4] = Half life in C57BL6/J mouse at 20 mg/kg, po by LC-MS/MS analysis; type: ADME, organism-based; conditions: in vivo
# [5] = Cmax in C57BL6/J mouse liver at 20 mg/kg, po by LC-MS/MS analysis; type: ADME, organism-based; design: dose 20 mg/kg, route oral
# [6] = 1-octanol/phosphate buffer solution partition coefficient, log D of the compound at pH 7.4 for 2 hrs by LC-MS/MS method; type: physicochemical
# [7] = Apparent permeability from apical to basolateral side in human Caco2 cells assessed as drug recovery at 10 uM after 1 hr by LC-MS/MS analysis; type: ADME, cell-based; conditions: Caco-2, read-out: Drug recovery
# physchem = conditions: PBS/MeOH
# [8] = Apparent permeability from basolateral to apical side in human Caco2 cells assessed as drug recovery at 10 uM after 1 hr by LC-MS/MS analysis; type: ADME, cell-based; conditions: Caco-2, read-out: Drug recovery
# [9] = Tmax in C57BL6/J mouse at 20 mg/kg, po by LC-MS/MS analysis; type: ADME, organism-based; conditions: in vivo
# [10] = Cmax in C57BL6/J mouse gallbladder at 20 mg/kg, po by LC-MS/MS analysis; type: ADME, organism-based, Gall bladder; design: dose 20 mg/kg, route oral
# [11] = Cmax in C57BL6/J mouse plasma at 20 mg/kg, po by LC-MS/MS analysis; type: ADME, organism-based; design: dose 20 mg/kg, route oral
# [12] = Half life in CD-1 mouse liver microsomes at 1 uM in presence of NADPH by LC-MS/MS analysis; type: ADME, microsome
# in vivo = conditions: C57BL6/J, mouse, faeces, po, 20 mg/kg
# Colon = test: Drug uptake in C57BL6 mouse colon at 20 mg/kg, po after 8 hrs by LC-MS/MS; type: ADME, organism-based; conditions: in vivo
# [13] = Apparent permeability from basolateral to apical side in human Caco2 cells assessed as drug recovery at 5 uM after 1 hr by LC-MS/MS analysis; type: ADME, cell-based; conditions: Caco-2, read-out: Drug recovery
# [14] = Apparent permeability from apical to basolateral side in human Caco2 cells at 5 uM after 1 hr by LC-MS/MS analysis; type: ADME, cell-based; conditions: Caco-2
# [15] = Apparent permeability from apical to basolateral side in human Caco2 cells assessed as drug recovery at 5 uM after 1 hr by LC-MS/MS analysis; type: ADME, cell-based; conditions: Caco-2, read-out: Drug recovery
# [16] = Apparent permeability from basolateral to apical side in human Caco2 cells at 5 uM after 1 hr by LC-MS/MS analysis; type: ADME, cell-based; conditions: Caco-2
SMILES,"Papp A→B at 1 h, 10 µM [1] [×10⁻⁶ cm/s]","Papp B→A at 1 h, 10 µM [2] [×10⁻⁶ cm/s]",AUC [3] [ng·h/mL],Drug uptake (Ileum),half-life [4] [min],Cmax [5] [nM],logD at 2 h [6],"recovery at 1 h, 10 µM [7] [%]",solubility at 24 h (physchem) [µM],"recovery at 1 h, 10 µM [8] [%]",Tmax [9] [min],Cmax [10] [nM],Cmax [11] [nM],half-life at 1 µM [12] [min],dose excreted at 24 h (in vivo) [%],Drug uptake (Colon),"recovery at 1 h, 5 µM [13] [%]","Papp A→B at 1 h, 5 µM [14] [×10⁻⁶ cm/s]","recovery at 1 h, 5 µM [15] [%]","Papp B→A at 1 h, 5 µM [16] [×10⁻⁶ cm/s]"
COc1ccc(N(C)c2cnc(SCc3c(F)cc(C#CC[N+](C)(C)C)cc3F)n2-c2ccc(F)cc2)cc1OC.[I-],0.08,0.24,–,–,–,–,–,–,–,–,–,–,–,–,–,–,–,–,–,–
COc1ccc(N(C)c2cnc(SCc3c(F)cc(OCCCS(=O)(=O)O)cc3F)n2-c2ccc(F)cc2)cc1OC.N,0.031,19,96.2,Active,317,385,0.8,80.1,> 200,102,45,11000,102,1.2,100,Active,–,–,–,–
COc1ccc(N(C)c2cnc(SCc3c(F)cc(C#CC[N+](C)(C)C)cc3F)n2-c2ccc(F)cc2)cc1OC.O=C[O-],–,–,48.5,–,97,–,1,69.8,–,93.4,15,9030,100,–,88,–,–,–,–,–
COc1ccc(N(C)c2cnc(SCc3c(F)cccc3F)n2-c2ccc(F)cc2)cc1OC,–,–,–,–,–,–,3.5,–,6.3,–,–,–,–,0.7,–,–,106,5.32,84.4,5.47
COc1ccc(N(C)c2cnc(SCc3c(F)cc(OCCC[N+]45CCN(CC4)CC5)cc3F)n2-c2ccc(F)cc2)cc1OC.O=C[O-],0.016,0.22,–,–,–,–,0.9,69.3,–,99.6,–,–,–,–,–,–,–,–,–,–

# From ChEMBL document CHEMBL4049444, “Topical Intestinal Aminoimidazole Agonists of G-Protein-Coupled Bile Acid Receptor 1 Promote Glucagon Like Peptide-1 Secretion and Improve Glucose Tolerance” (J Med Chem, 2017)
